From US11117892B2, “Pyrrolo-pyridine derivative compound, method for preparing same, and pharmaceutical composition containing same as active ingredient for prevention or treatment of protein kinase-related diseases” (DAEGU-GYEONGBUK MEDICAL INNOVATION FOUNDATION, priority 2017, dated 2021)

Tests used:
Experiment in all cases: scanMAX Kinase assay panel
Type in all cases: binding
Conditions in all cases: read-out: % control
[1] = biological target: ABL1(Q252H)-phosphorylated (Homo sapiens (Human), UniProt P00519, Q252H)
Method in brief: (§1)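 Panel: scanMAX. Metric: % control. The 100% anchor is DMSO and the 0% anchor is the positive control.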

[2] = biological target: ADCK3 (Homo sapiens (Human), UniProt Q8NI60)
Method in brief: as §1

[3] = biological target: AKT2 (Homo sapiens (Human), UniProt P31751)
Method in brief: as §1

[4] = biological target: BMPR2 (Homo sapiens (Human), UniProt Q13873)
Method in brief: as §1

[5] = biological target: CDC2L2 (Homo sapiens (Human), UniProt Q9UQ88)
Method in brief: as §1

[6] = biological target: CDK9 (Homo sapiens (Human), UniProt P50750)
Method in brief: as §1

[7] = biological target: CIT (Homo sapiens (Human), UniProt O14578)
Method in brief: as §1

[8] = biological target: DLK (Homo sapiens (Human), UniProt Q12852)
Method in brief: as §1

[9] = biological target: EGFR(S752-I759del) (Homo sapiens (Human), UniProt P00533, DEL752-759)
Method in brief: as §1

[10] = biological target: EPHB2 (Homo sapiens (Human), UniProt P29323)
Method in brief: as §1

[11] = biological target: GCN2(Kin.Dom.2, S808G) (Homo sapiens (Human), UniProt Q9P2K8, S808G)
Method in brief: as §1

[12] = biological target: HCK (Homo sapiens (Human), UniProt P08631)
Method in brief: as §1

[13] = biological target: JAK1(JH2domain-pseudokinase) (Homo sapiens (Human), UniProt P23458)
Method in brief: as §1

[14] = biological target: JAK3(JH1domain-catalytic) (Homo sapiens (Human), UniProt P52333)
Method in brief: as §1

[15] = biological target: KIT(D816V) (Homo sapiens (Human), UniProt P10721, D816V)
Method in brief: as §1

[16] = biological target: LRRK2 (Homo sapiens (Human), UniProt Q5S007)
Method in brief: as §1

[17] = biological target: MAP3K3 (Homo sapiens (Human), UniProt Q99759)
Method in brief: as §1

[18] = biological target: MAP4K3 (Homo sapiens (Human), UniProt Q8IVH8)
Method in brief: as §1

[19] = biological target: MET (Homo sapiens (Human), UniProt P08581)
Method in brief: as §1

[20] = biological target: MKNK1 (Homo sapiens (Human), UniProt Q9BUB5)
Method in brief: as §1

[21] = biological target: MLK3 (Homo sapiens (Human), UniProt Q16584)
Method in brief: as §1

[22] = biological target: MRCKB (Homo sapiens (Human), UniProt Q9Y5S2)
Method in brief: as §1

[23] = biological target: MYLK4 (Homo sapiens (Human), UniProt Q86YV6)
Method in brief: as §1

[24] = biological target: NEK3 (Homo sapiens (Human), UniProt P51956)
Method in brief: as §1

[25] = biological target: NEK6 (Homo sapiens (Human), UniProt Q9HC98)
Method in brief: as §1

[26] = biological target: NEK9 (Homo sapiens (Human), UniProt Q8TD19)
Method in brief: as §1

[27] = biological target: PFTAIRE2 (Homo sapiens (Human), UniProt Q96Q40)
Method in brief: as §1

[28] = biological target: PIK3CA(M1043I) (Homo sapiens (Human), UniProt P42336, M1043I)
Method in brief: as §1

[29] = biological target: PIK3CA(Q546K) (Homo sapiens (Human), UniProt P42336, Q546K)
Method in brief: as §1

[30] = biological target: PRKD3 (Homo sapiens (Human), UniProt O94806)
Method in brief: as §1

[31] = biological target: RIOK1 (Homo sapiens (Human), UniProt Q9BRS2)
Method in brief: as §1

[32] = biological target: RIOK2 (Homo sapiens (Human), UniProt Q9BVS4)
Method in brief: as §1

[33] = biological target: RIPK2 (Homo sapiens (Human), UniProt O43353)
Method in brief: as §1

[34] = biological target: SGK (Homo sapiens (Human), UniProt O00141)
Method in brief: as §1

[35] = biological target: SIK2 (Homo sapiens (Human), UniProt Q9H0K1)
Method in brief: as §1

[36] = biological target: STK33 (Homo sapiens (Human), UniProt Q9BYT3)
Method in brief: as §1

[37] = biological target: VRK2 (Homo sapiens (Human), UniProt Q86Y07)
Method in brief: as §1

[38] = biological target: YES (Homo sapiens (Human), UniProt P07947)
Method in brief: as §1

[39] = biological target: p38-gamma (Homo sapiens (Human), UniProt P53778)
Method in brief: as §1

Chain of CDK9 (P50750 whole entry): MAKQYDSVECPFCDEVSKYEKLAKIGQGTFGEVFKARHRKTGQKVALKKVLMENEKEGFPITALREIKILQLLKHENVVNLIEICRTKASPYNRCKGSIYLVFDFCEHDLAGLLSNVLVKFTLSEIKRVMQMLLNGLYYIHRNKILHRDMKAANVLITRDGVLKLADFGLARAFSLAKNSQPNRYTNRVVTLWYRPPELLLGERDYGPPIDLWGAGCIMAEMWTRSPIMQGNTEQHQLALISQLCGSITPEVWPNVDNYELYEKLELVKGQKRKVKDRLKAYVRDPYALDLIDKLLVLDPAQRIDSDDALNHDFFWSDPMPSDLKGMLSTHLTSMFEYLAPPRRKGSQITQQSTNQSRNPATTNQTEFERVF
Chain of MAP4K3 (Q8IVH8 whole entry): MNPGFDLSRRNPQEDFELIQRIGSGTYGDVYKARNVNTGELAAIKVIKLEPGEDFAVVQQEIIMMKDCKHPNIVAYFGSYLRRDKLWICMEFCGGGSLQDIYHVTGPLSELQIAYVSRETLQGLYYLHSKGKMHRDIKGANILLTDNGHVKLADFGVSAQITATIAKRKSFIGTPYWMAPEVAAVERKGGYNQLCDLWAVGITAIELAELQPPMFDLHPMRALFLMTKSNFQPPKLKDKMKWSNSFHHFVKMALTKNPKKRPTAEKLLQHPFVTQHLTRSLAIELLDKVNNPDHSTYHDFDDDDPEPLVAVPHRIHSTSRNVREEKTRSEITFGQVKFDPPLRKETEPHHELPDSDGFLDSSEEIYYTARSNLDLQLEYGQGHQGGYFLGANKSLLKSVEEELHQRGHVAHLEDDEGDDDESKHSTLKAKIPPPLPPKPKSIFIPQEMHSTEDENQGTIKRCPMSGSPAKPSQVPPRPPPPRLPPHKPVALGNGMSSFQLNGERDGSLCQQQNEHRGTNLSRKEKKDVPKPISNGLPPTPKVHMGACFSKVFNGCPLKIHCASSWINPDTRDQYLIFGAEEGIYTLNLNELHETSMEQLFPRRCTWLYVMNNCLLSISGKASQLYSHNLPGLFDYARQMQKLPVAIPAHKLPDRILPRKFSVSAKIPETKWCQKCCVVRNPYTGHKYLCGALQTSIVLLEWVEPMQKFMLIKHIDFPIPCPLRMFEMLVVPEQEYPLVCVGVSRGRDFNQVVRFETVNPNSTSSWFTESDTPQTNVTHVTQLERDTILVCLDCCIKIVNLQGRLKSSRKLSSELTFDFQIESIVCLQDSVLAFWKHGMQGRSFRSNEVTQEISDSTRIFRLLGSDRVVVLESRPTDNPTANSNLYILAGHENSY
Chain of RIOK2 (Q9BVS4 whole entry): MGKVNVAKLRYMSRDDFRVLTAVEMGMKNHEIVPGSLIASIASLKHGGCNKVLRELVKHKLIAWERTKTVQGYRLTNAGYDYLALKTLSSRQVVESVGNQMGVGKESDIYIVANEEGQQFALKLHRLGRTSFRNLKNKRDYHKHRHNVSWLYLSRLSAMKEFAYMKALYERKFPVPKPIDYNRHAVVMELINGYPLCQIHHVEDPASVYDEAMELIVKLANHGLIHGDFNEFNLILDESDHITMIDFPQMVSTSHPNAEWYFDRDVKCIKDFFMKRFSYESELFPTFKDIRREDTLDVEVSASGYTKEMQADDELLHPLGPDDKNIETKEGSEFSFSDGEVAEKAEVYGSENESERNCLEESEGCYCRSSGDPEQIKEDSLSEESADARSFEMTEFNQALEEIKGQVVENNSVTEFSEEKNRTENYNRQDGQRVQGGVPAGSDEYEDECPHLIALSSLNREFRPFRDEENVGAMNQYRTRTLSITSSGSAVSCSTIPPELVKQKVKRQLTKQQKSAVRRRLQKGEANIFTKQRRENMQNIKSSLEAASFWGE
Chain of SIK2 (Q9H0K1 whole entry): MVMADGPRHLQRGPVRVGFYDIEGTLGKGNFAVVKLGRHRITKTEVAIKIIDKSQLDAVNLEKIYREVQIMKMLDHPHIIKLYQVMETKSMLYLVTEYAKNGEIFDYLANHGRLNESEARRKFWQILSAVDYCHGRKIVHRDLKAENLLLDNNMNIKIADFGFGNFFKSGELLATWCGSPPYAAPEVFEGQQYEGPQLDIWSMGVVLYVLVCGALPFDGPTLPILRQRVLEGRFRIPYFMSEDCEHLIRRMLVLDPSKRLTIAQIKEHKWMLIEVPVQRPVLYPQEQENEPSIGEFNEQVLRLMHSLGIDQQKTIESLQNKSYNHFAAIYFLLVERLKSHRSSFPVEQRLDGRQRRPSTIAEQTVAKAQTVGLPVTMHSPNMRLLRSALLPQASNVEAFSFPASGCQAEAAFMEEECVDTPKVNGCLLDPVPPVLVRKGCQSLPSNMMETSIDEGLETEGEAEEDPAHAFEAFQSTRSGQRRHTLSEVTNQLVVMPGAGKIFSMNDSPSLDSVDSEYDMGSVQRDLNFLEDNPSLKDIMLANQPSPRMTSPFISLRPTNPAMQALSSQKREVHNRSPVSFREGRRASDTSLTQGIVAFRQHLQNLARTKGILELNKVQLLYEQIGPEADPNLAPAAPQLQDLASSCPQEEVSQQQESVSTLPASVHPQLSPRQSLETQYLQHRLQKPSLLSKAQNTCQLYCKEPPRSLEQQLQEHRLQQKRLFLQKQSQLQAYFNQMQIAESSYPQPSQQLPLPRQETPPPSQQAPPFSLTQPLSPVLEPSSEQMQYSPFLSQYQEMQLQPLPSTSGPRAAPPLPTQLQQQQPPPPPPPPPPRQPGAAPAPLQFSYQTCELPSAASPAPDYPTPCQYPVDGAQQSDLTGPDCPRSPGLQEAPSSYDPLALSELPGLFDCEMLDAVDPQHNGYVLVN
Chain of SGK (O00141 whole entry): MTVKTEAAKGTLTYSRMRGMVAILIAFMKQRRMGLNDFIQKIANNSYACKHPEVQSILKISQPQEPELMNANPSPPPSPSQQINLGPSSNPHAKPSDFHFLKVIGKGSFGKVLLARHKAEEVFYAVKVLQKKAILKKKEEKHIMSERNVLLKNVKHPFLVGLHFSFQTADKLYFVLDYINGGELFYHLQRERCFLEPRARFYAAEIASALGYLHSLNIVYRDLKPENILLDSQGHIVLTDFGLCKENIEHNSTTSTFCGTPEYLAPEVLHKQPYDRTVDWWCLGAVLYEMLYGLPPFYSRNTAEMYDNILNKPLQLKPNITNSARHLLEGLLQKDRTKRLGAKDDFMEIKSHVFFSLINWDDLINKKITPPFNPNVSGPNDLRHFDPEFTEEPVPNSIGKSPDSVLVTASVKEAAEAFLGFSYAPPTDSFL
Chain of GCN2(Kin.Dom.2, S808G) (Q9P2K8 590-1001 S808G): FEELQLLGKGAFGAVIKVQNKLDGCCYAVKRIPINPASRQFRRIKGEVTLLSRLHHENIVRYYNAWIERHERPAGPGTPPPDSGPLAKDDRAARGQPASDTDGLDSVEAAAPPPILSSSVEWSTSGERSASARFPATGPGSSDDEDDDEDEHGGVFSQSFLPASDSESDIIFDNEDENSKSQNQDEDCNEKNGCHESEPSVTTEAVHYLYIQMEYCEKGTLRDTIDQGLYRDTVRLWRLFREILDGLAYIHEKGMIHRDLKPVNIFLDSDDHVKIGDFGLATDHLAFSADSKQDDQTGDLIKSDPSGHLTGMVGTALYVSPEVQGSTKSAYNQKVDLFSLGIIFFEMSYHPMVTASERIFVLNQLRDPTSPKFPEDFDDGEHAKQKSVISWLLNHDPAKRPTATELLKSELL
Chain of RIOK1 (Q9BRS2 whole entry): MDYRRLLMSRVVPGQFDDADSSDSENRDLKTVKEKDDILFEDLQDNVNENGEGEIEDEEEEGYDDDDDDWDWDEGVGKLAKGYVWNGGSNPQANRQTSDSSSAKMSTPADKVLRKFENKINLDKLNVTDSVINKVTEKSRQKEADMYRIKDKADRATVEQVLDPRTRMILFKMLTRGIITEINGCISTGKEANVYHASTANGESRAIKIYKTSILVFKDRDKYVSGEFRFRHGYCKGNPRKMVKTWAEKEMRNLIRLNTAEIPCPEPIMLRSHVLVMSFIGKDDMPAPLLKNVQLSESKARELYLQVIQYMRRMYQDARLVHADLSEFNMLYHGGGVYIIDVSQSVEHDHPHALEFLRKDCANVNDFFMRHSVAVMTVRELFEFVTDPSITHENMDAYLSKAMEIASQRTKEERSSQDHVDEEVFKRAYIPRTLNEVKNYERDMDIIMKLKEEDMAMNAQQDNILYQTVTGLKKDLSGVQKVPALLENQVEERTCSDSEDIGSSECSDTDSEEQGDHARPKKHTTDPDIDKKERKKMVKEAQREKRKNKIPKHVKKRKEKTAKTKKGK
Chain of NEK6 (Q9HC98 whole entry): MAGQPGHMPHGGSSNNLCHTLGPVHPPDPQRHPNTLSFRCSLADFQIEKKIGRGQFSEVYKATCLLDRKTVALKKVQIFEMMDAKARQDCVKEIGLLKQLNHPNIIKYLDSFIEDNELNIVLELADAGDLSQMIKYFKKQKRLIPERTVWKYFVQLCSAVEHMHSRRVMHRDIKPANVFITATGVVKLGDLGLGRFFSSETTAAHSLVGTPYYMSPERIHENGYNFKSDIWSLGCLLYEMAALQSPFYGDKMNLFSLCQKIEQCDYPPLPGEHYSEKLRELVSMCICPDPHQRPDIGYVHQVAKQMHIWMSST
Chain of JAK1(JH2domain-pseudokinase) (P23458 583-855): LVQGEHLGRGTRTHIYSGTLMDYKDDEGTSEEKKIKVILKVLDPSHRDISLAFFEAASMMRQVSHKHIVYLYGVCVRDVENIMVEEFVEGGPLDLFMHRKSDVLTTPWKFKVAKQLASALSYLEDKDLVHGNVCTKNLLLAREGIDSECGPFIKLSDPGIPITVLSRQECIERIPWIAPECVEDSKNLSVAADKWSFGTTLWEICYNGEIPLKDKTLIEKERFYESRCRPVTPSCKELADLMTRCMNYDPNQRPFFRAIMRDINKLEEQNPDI

SMILES | remaining binding at 1 µM [1] | remaining binding at 1 µM [2] | remaining binding at 1 µM [3] | remaining binding at 1 µM [4] | remaining binding at 1 µM [5] | remaining binding at 1 µM [6] | remaining binding at 1 µM [7] | remaining binding at 1 µM [8] | remaining binding at 1 µM [9] | remaining binding at 1 µM [10] | remaining binding at 1 µM [11] | remaining binding at 1 µM [12] | remaining binding at 1 µM [13] | remaining binding at 1 µM [14] | remaining binding at 1 µM [15] | remaining binding at 1 µM [16] | remaining binding at 1 µM [17] | remaining binding at 1 µM [18] | remaining binding at 1 µM [19] | remaining binding at 1 µM [20] | other results
CCNc1cc(Nc2ccc(C(=O)N3CCC(N4CCOCC4)CC3)cc2OC)nc2[nH]cc(C#N)c12 [Example 18, 4-(ethylamino)-6-((2-methoxy-4-(4-morpholinopiperidine-1-carbonyl)phenyl)amino)-1H-pyrrolo[2,3-b]pyridine-3-carbonitrile] | 100% | 86% | 87% | 44% | 86% | 100% | 71% | 79% | 99% | 87% | 97% | 85% | 82% | 54% | 82% | 1.1% | 70% | 93% | 100% | 93% | remaining binding at 1 µM [21]: 99%; remaining binding at 1 µM [22]: 92%; remaining binding at 1 µM [23]: 88%; remaining binding at 1 µM [24]: 87%; remaining binding at 1 µM [25]: 97%; remaining binding at 1 µM [26]: 91%; remaining binding at 1 µM [27]: 79%; remaining binding at 1 µM [28]: 100%; remaining binding at 1 µM [29]: 100%; remaining binding at 1 µM [30]: 9.6%; remaining binding at 1 µM [31]: 94%; remaining binding at 1 µM [32]: 63%; remaining binding at 1 µM [33]: 86%; remaining binding at 1 µM [34]: 64%; remaining binding at 1 µM [35]: 87%; remaining binding at 1 µM [36]: 17%; remaining binding at 1 µM [37]: 87%; remaining binding at 1 µM [38]: 90%; remaining binding at 1 µM [39]: 77%
CCNc1cc(Nc2ccc(C(=O)N3CCC(N4CCOCC4)CC3)cc2OC)nc2[nH]cc(C(F)(F)F)c12 [Example 57, (4-((4-(ethylamino)-3-(trifluoromethyl)-1H-pyrrolo[2,3-b]pyridin-6-yl)amino)-3-methoxyphenyl) (4-morpholinopiperidin-1-yl)methanone] | 100% | 89% | 90% | 84% | 88% | 85% | 66% | 100% | 75% | 100% | 91% | 88% | 45% | 100% | 83% | 48% | 75% | 91% | 100% | 100% | remaining binding at 1 µM [21]: 80%; remaining binding at 1 µM [22]: 100%; remaining binding at 1 µM [23]: 83%; remaining binding at 1 µM [24]: 93%; remaining binding at 1 µM [25]: 84%; remaining binding at 1 µM [26]: 89%; remaining binding at 1 µM [27]: 94%; remaining binding at 1 µM [28]: 99%; remaining binding at 1 µM [29]: 100%; remaining binding at 1 µM [30]: 78%; remaining binding at 1 µM [31]: 94%; remaining binding at 1 µM [32]: 100%; remaining binding at 1 µM [33]: 94%; remaining binding at 1 µM [34]: 100%; remaining binding at 1 µM [35]: 95%; remaining binding at 1 µM [36]: 16%; remaining binding at 1 µM [37]: 100%; remaining binding at 1 µM [38]: 83%; remaining binding at 1 µM [39]: 77%
